Data published in patent US7687472B2, “Methods and compositions for treating hyperglycemic, hyperlipidemic, or hyperinsulinemic disorders” (Ohio University, priority 2004, dated 2010).

Tests used:
3T3-L1 preadipocytes [1] = assay: MDI-induced differentiation of 3T3-L1 preadipocytes into adipocytes, measured by glucose uptake; format: cell-based; details: MDI plus 20 μM compound; ten days after induction; FIG. 4
Method: FIG. 4 illustrates adipocyte differentiation induced by MDI. […] Ten days after the induction, cells were assayed for their respective ability to take up glucose from the media by a radioactive glucose uptake assay. Each sample (condition) was in triplicate. The concept that adipocyte differentiation can be indirectly measured by glucose uptake was based on the observation that only differentiated adipocytes can take up glucose through a Glut4-mediated pathway while undifferentiated preadipocytes cannot.
To determine the effective concentration of the compounds of Formula I, II, or III to use in preventing adipogenesis in vitro, undifferentiated preadipocytes are incubated either with a differentiation-induction cocktail, comprised of 3-isobutyl-1-methylxanthine, dexamethasone, and insulin (MDI); or with MDI plus the test compound. After about 10 days MDI induces differentiation, which is clearly visible as the change from fibroblast-like preadipocytes to round-shaped, fat vesicle-containing adipocytes. […]
Ten days after the induction, cells were assayed for their respective ability to take up glucose from the media by a standard radioactive glucose uptake assay. […] The adipocyte differentiation can be measured by glucose uptake because only differentiated adipocyte can take up glucose through Glut4-mediated pathway while undifferentiated preadipocytes cannot.

3T3-L1 adipocytes = assay: Glucose uptake ([3H] 2-deoxy-D-glucose) assay in 3T3-L1 adipocytes; format: cell-based; details: for glucose transport inducing activity compared with α-PGG: α-PGG 30 μM
Method: Glucose uptake activity in cells may be analyzed by measuring the uptake of 2-deoxy-D-[3H] glucose using a standard assay. Confluent 3T3-L1 adipocytes grown in 12-well plates are washed twice with serum-free DMEM and incubated with 1 mL of the same medium at 37° C. for 2 h. The cells are washed 3 times with Krebs-Ringer-Hepes (KRP) buffer and incubated with 0.9 mL KRP buffer at 37° C. for 30 min. Insulin (positive control) or the compounds of Formula I, II, or III (experimentals) are then added at pre-determined concentrations and adipocytes are incubated at 37° C. for 15 min. Glucose uptake is initiated by addition of 0.1 mL KRP buffer and 37 MBq/L 2-deoxy-D-[^3H] glucose and 1 mmol/L glucose as final concentrations. After 10 min, glucose uptake is terminated by washing the cells 3 times with cold PBS. The cells are lysed with 0.7 mL of 1% Triton X-100 at 37° C. for 20 min. The radioactivity retained by the cell lysates is determined by a scintillation counter. The dosage that induces the maximal glucose uptake can be selected among the experimental samples.
6Cl-α-TGQ and 6Cl-β-TGQ were synthesized as described above. α-TGQ was synthesized using methods analogous to the preparation of 6Cl-α-TGQ (Examples 1 and 2) starting from commercially available 6-deoxy-D-glucose. Alpha-pentagalloylglucose (α-PGG) was obtained. 3T3-L1 preadipocytes grown in 24-well plates were induced by MDI until they were differentiated into adipocytes. Adipocytes were washed twice with serum-free DMEM and incubated with 0.5 ml of the same medium in 10% C02 at 37 ° C. for 2 hours. The cells were washed 3 times with Kerbs-Ringer-HEPES (KRP) buffer (136 mM NaCl, 4.7 mM KCl, 1.25 mM CaCl2, 1.25 mM MgSO4 and 10 mM sodium phosphate buffer at pH 7.4) and then incubated with 0.45 ml KRP buffer at 37 ° C. for 30 minutes. Glucose transport inducing agents were individually added to the cells at predetermined concentrations and each condition was duplicated or triplicated, then the adipocytes were incubated at 37 ° C. for 15 minutes. Glucose uptake was initiated by the addition of 0.1 ml of KPR buffer supplemented with 1 μCi/ml [^3H] 2-deoxy-D-glucose and 1 mM cold glucose as the final concentration to the cells. After 10 min, the medium was aspirated and the plates were washed with ice-cold PBS three times to terminate the induced glucose uptake. The cells were lysed with 0.45 ml of 1% triton X-100 at 37 ° C. for 20 min. The radioactivity taken up by the cells was determined in a solution of 0.4 ml of the cell lysates and 5 ml of scintillation liquid using a scintillation counter (Beckman Instruments).
6Br-α-TGQ and 6Br-β-TGQ were chemically synthesized using a preparation analogous to the preparation of 6Cl-TGQ (Examples 1, 2 and 3) starting from commercially available 6-bromo-D-glucose. 6Cl-α-TGQ was synthesized as described above. Alpha-pentagalloylglucose (α-PGG) was obtained. Confluent 3T3-L1 adipocytes were purchased from ATCC and grown in 12-well plates are washed twice with serum-free DMEM and incubated with 1 mL of the same medium at 37° C. for 2 h. The cells are washed 3 times with Krebs-Ringer-Hepes (KRP) buffer and incubated with 0.9 mL KRP buffer at 37° C. for 30 min.
Glucose uptake was initiated by addition of 0.1 mL KRP buffer and 37 MBq/L 2-deoxy-D-[^3H] glucose and 1 mmol/L glucose as final concentrations, and the ^3H labeled glucose was then added to the cells for 15 min. […] The radioactivity retained by the cell lysates was determined by a scintillation counter. […]

Glut4 = Glut4 translocation by immunostaining and confocal microscopy in 3T3-L1 adipocytes; format: cell-based; details: FIG. 3
Method: (§1) FIG. 3 illustrates induced Glut4 translocation. 3T3-L1 adipocytes were either uninduced, or induced by 1 μM insulin, or 30 μM 6Cl-α-TGQ. The treated cells were immunostained with an anti-Glut4 antibody followed with the secondary antibody (Fluorescein (FITC)-conjugated affinipure F(ad′)2 fragment Donkey anti-Mouse IgG). The cells were then mounted for microscopic visualization. The immunostained cells were visualized with a Zeiss LSM510 confocal microscope at wavelength of 488 nm for excitation and 520 nm for emission.
as §1, with “The” for “FIG. 3 illustrates induced Glut4 translocation. 3T3-L1 adipocytes were either uninduced, or induced by 1 μM insulin, or 30 μM 6Cl-α-TGQ. The”

3T3-L1 preadipocytes [2] = details: α-PGG used at 20 μM with MDI; cited from earlier work
IR = IR phosphorylation by Western blot in CHO-IR cells; format: cell-based; details: anti-phosphorylated IR antibody
Method: (§2) FIG. 6 illustrates that novel TGQ compounds stimulate IR and Akt phosphorylation in CHO-IR cells and Akt phosphorylation in 3T3-L1 fat cells. CHO-IR cells or 3T3-L1 adipocytes were induced under conditions as shown. Total protein was isolated from the cells and subjected SDS-PAGE and subsequently transferred to a […] membrane. The proteins on the membrane were detected by anti-phosphorylated IR or Akt antibodies. […] Thirty to 60 μg of total protein and the biotinylated protein marker was mixed with SDS sample buffer and heated at 95-100° C. for 5 minutes. Then, each sample and a marker were subjected to 8% SDS POLYACRYLAMIDE GEL ELECTROPHORESIS (SDS-PAGE). After electrophoresis, the proteins on the gel were transferred to a nitrocellulose. The nitrocellulose membrane was blocked, and then incubated with the desired primary antibody (specifically against either phosphorylated form of IR or Akt) overnight at 4° C. with gentle agitation. After overnight incubation, the membrane was washed, and then incubated with the HRP-conjugated secondary antibody for 1 hour at room temperature. Then, the membrane was washed, the proteins on the membrane were detected by a Western blotting LumiGLO system (Cell Signaling Tech, Inc) and finally visualized by exposing the membrane to an x-ray film in a cassette for a proper time, usually from 1 to 10 minutes.

Akt = Akt phosphorylation by Western blot in CHO-IR cells and 3T3-L1 adipocytes; format: cell-based; details: CHO-IR cells or 3T3-L1 adipocytes; anti-phosphorylated Akt antibody
Method: as §2

6-chloro-1,2,3,4-tetragalloyl-D-quinovopyranose [6Cl-β-TGQ]
inhibition of adipocyte differentiation (3T3-L1 preadipocytes [1]): inhibit adipocyte differentiation

O=C(O[C@H]1O[C@H](CCl)[C@@H](OC(=O)c2cc(O)c(O)c(O)c2)[C@H](OC(=O)c2cc(O)c(O)c(O)c2)[C@H]1OC(=O)c1cc(O)c(O)c(O)c1)c1cc(O)c(O)c(O)c1 [6Cl-α-TGQ, 6-chloro-α-1,2,3,4-tetragallolyl-D-quinovopyranose]
more glucose transported than the insulin controls (3T3-L1 adipocytes; 30 μM compound, insulin control 1 μM, FIG. 2): 10% | glucose transport activity compared with insulin (3T3-L1 adipocytes; insulin 1 μM, FIG. 2): as active as insulin | glucose transport inducing activity compared with α-PGG (3T3-L1 adipocytes; FIG. 2): more active than pentagalloyl-α-D-glucopyranose (α-PGG) | glucose transport inducing activity compared with α-PGG (3T3-L1 adipocytes; FIG. 2, listed as 6Cl-α: TGQ): more active than α-PGG | Glut4 translocation to the cell membrane (Glut4; 30 μM compound): induced Glut4 translocation to the cell membrane | inhibition of adipocyte differentiation (3T3-L1 preadipocytes [1]): inhibit adipocyte differentiation

O=C(OC[C@H]1O[C@H](OC(=O)c2cc(O)c(O)c(O)c2)[C@H](OC(=O)c2cc(O)c(O)c(O)c2)[C@@H](OC(=O)c2cc(O)c(O)c(O)c2)[C@@H]1OC(=O)c1cc(O)c(O)c(O)c1)c1cc(O)c(O)c(O)c1 [α-PGG, pentagalloyl-α-D-glucopyranose]
inhibition of adipocyte differentiation (known) (3T3-L1 preadipocytes [2]): known to inhibit the differentiation

insulin: the hormone which regulates glucose utilization; positive control
Glut4 translocation to the cell membrane (Glut4; 1 μM insulin): induced Glut4 translocation to the cell membrane

6-chloro-1,2,3,4-tetragalloyl-D-quinovopyranose [6Cl-TGQ]
Glut4 translocation to the cell membrane (Glut4; 30 μM compound): induced Glut4 translocation to the cell membrane | IR phosphorylation (IR): can induce IR and Akt phosphorylation | Akt phosphorylation (Akt): can induce IR and Akt phosphorylation

CC1OC(OC(=O)c2cc(O)c(O)c(O)c2)C(OC(=O)c2cc(O)c(O)c(O)c2)C(OC(=O)c2cc(O)c(O)c(O)c2)C1OC(=O)c1cc(O)c(O)c(O)c1 (stereo not drawn) [α-TGQ]
glucose transport stimulatory activity (3T3-L1 adipocytes; various concentrations): active
